Structures are written as SMILES.

This experiment has as its system CEM/VLB1000 cell line. In words: Cytotoxicity potentiation: enhancement of vinblastine cytotoxicity in MDR cell line (alamar blue). The format is cell-based, human. Particulars: Homo sapiens, midpoint of minimum and maximum cytotoxicity induced by 3-5 μg/mL vinblastine and compound, 48 hours incubation, alamar blue 24 hours, read-out: Cytotocicity Potentiation (EC50). On the procedure:
Multidrug-resistant cell lines are easily obtainable for in vitro determination of drug sensitization by compounds of the present invention. In vitro potentiation of antineoplastic cytotoxicity by the imidazole derivatives of the present invention was measured in both CEM/VLB1000 and SK/VLB1000 cell lines. The multidrug resistant cell lines were obtained from Dr. Victor Ling, Ontario Cancer Institute, Toronto, Canada. The CEM/VLB 1000 cell line was maintained as a suspension in minimum essential medium supplemented with 10% fetal bovine serum in a humidied atmosphere of 95% air and 5% CO2 while the SK/VLB 1000 cell line was maintained as adherent cells using the identical medium conditions as the CEM cells. The CEM/VLB 1000 cells were seeded at a density of 5×10^4 cells/well in a 96 well microtiter plate while the SK/VLB 1000 cell line was seeded at a density of 2,500 cells/well after trypsinization.
Regarding `COC(=O)[C@@H]1C[C@H]1c1ccc(-c2nc(-c3ccc(N(C)C)cc3)c(-c3ccc(N(C)C)cc3)[nH]2)cc1` (relative stereo) [Example 101], the 50% effective concentration (EC50) amounted to 200 nM.

For `CN(C)c1ccc(-c2nc(-c3ccc(/C=C/c4nc5ccccc5o4)cc3)[nH]c2-c2ccc(N(C)C)cc2)cc1` [Example 56, 2-[trans-2-(2-benzoxazolyl)ethenylphenyl]-4,5-bis (4-N,N-dimethylaminophenyl) imidazole], the EC50 worked out at 550 nM.

With `CNc1ccc(-c2[nH]c(-c3ccc(/C=C/c4nc5ccccc5o4)cc3)nc2-c2ccc(N(C)C)cc2)cc1` [Example 57, 2-[trans-2-(2-benzoxazolyl)ethenylphenyl]-4-(4-N,N-dimethylaminophenyl)-5-(4-N-methylaminophenyl) imidazole], the EC50 was 210 nM.

As to `CCN(CC)c1ccc(-c2nc(-c3ccc(/C=C/c4nc5ccccc5o4)cc3)[nH]c2-c2ccc(NC)cc2)cc1` [Example 58, 2-[trans-2-(2-benzoxazolyl)ethenylphenyl]-4-(4-N,N-diethylaminophenyl)-5-(4-N-methylaminophenyl) imidazole], the EC50 was 470 nM.

Regarding `CNc1ccc(-c2nc(-c3ccc(/C=C/c4nc5ccccc5o4)cc3)[nH]c2-c2ccc(N3CCCC3)cc2)cc1` [Example 60, 2-[trans-2-(2-benzoxazolyl)ethenylphenyl]-4-(4-N-methylaminophenyl)-5-(4-pyrrolidinophenyl) imidazole], the EC50 is 450 nM.

Regarding `COCCNc1ccc(-c2[nH]c(-c3ccc(/C=C/c4nc5ccccc5o4)cc3)nc2-c2ccc(N(C)C)cc2)cc1` [Example 61, 2-[trans-2-(2-benzoxazolyl)ethenylphenyl]-4-(4-N,N-dimethylaminophenyl)-5-[4-(2-methoxyethylamino)phenyl] imidazole], the EC50 amounted to 160 nM.

Regarding `CN(C)c1ccc(-c2nc(-c3ccc(/C=C/c4nc5ccccc5s4)cc3)[nH]c2-c2ccc(N(C)C)cc2)cc1` [Example 62, 2-[trans-2-(2-benzthiazolyl)ethenylphenyl]-4,5-bis (4-N,N-dimethylaminophenyl) imidazole], the half-maximal effective concentration (EC50) came to 1030 nM.

In the case of `CNc1ccc(-c2[nH]c(-c3ccc(/C=C/c4nc5ccccc5s4)cc3)nc2-c2ccc(N(C)C)cc2)cc1` [Example 63, 2-[trans-2-(2-benzthiazolyl)ethenylphenyl]-4-(4-N-dimethylaminophenyl)-5-(4-N-methylaminophenyl) imidazole], the 50% effective concentration (EC50) was determined as 320 nM.

As for `CN(C)c1ccc(-c2nc(-c3ccc(/C=C/C#N)cc3)[nH]c2-c2ccc(N(C)C)cc2)cc1` [Example 64, 2-[trans-2-(2-cyano)ethenylphenyl]-4,5-(4-N,N-dimethylaminophenyl) imidazole], the EC50 was found to be 550 nM.

For `COCCNc1ccc(-c2[nH]c(-c3ccc(/C=C/C#N)cc3)nc2-c2ccc(N(C)C)cc2)cc1` [Example 65], the EC50 turned out to be 250 nM.

Turning to `C=CCN(CC=C)c1ccc(-c2nc(-c3ccc(/C=C/C(=O)OC)cc3)[nH]c2-c2ccc(F)cc2)cc1` [Example 66, 2-(trans-2-methoxycarbonyl-ethenylphenyl)-4-(4-N,N-diallylaminophenyl)5-(4-fluoro-phenyl) imidazole], the concentration giving a half-maximal response (EC50) amounted to 850 nM.

As to `CNc1ccc(-c2nc(-c3ccc(/C=C/C(=O)OC)cc3)[nH]c2-c2ccc(N3CCCC3)cc2)cc1` [Example 67, 2-(trans-2-methoxycarbonyl-ethenylphenyl)-4-(4-N-methylaminophenyl)5-(4-pyrrolidinophenyl) imidazole], the EC50 worked out at 98 nM.

`CNc1ccc(-c2nc(-c3ccc(/C=C/C(=O)OC)cc3)[nH]c2-c2ccc(N3CCCCC3)cc2)cc1` [Example 68, 2-(trans-2-methoxycarbonyl-ethenylphenyl) -4-(4-N-methylaminophenyl)5-(4-piperidinophenyl) imidazole]: the EC50 was 390 nM.

For the origin of these results see US5840721A, “Imidazole derivatives as MDR modulators” (Ontogen Corporation, priority 1997, dated 1998).
